Experiments:
[1] = test system: CYP2B6; details: primary human hepatocytes, via PXR activation; stated as typical behaviour; cited from earlier work
[2] = test system: CYP2B6; assay: P450 induction assay in HepaRG cells (CYP2B6 activity, hydroxybupropion formation from bupropion); type: cell-based; details: HepaRG cells cultured without matrix overlay; 10 μM RIF, 72 hours of treatment; induction is seen only when the cells are overlayed
Protocol: Cryopreserved HepaRG™ cells (Life Technologies Corporation) are terminally differentiated prior to cryopreservation. Frozen HepaRG™ cells were thawed and plated per manufacturer's instructions and placed into 37° C., 5% CO2 cell culture incubator. 24 hours after plating, media was aspirated and cells were overlayed using 0.35 mg/mL Geltrex® matrix in 4° C. in 770 media. 72 hours after plating, media was aspirated and media was exchanged with either 740 or 750 media containing 0.1% DMSO, 50 μM omeprazole (OMP), 1 mM Phenobarbital (PB), or 10 μM Rifampicin (RIF). 740 and 750 media containing vehicle or prototypical inducers was replaced daily for a total of 72 hours of treatment. Day 6 of culture (24 hours after last dosing), P450 activity was evaluated and total RNA was isolated. P450 activity was evaluated utilizing in situ incubations of prototypical substrates (100 μM phenacetin, 500 bupropion, 10 μM midazolam, or 200 μM testosterone) in Hanks' Balanced Salts Solution (HBSS) for 1 hour at 37° C. shaking on microplate shaker @600 rpm. After in situ incubations were completed, incubation matrix (supernatant/HBSS) was removed from cell monolayer and metabolite formation was evaluated by LC/MS-MS analysis. Microphotographs were taken daily to monitor morphological changes.

induction of CYP2B6 [2]: does not induce
SMILES: CO[C@H]1/C=C/O[C@@]2(C)Oc3c(C)c(O)c4c(O)c(c(/C=N/N5CCN(C)CC5)c(O)c4c3C2=O)NC(=O)/C(C)=C\C=C\[C@H](C)[C@H](O)[C@@H](C)[C@@H](O)[C@@H](C)[C@H](OC(C)=O)[C@@H]1C [RIF, Rifampicin]
induction of CYP2B6 enzyme activity [1]: induces

From patent US20160168537A1, “DIFFERENTIATED CELLULAR COMPOSITIONS AND METHODS FOR THEIR PREPARATION AND USE” (LIFE TECHNOLOGIES CORPORATION, priority 2013, published 2016)
